Laboratory results as given in article PMC11513923, “Discovery of ZLC491 as a Potent, Selective, and Orally Bioavailable CDK12/13 PROTAC Degrader” (Journal of Medicinal Chemistry, 2024).

What was measured:
[1] = Tolerability and body weight in MDA-MB-231 xenografted mice; format: in vivo; details: 100 and 200 mg/kg orally, 5 days
Description: We further performed pharmacodynamic studies of ZLC491 in an MDA-MB-231 xenografted mouse model. ZLC491 was orally administrated at two doses of 100 and 200 mg/kg, respectively, for 5 consecutive days (Figure 7A). Tumor tissues were harvested on day 5 and subjected to Western blot analysis. […] Additionally, we conducted further histological analysis on the tumors following ZLC491 treatment.
Figure 7 ZLC491 depleted CDK12 and CDK13 proteins in vivo. (A) Study design of pharmacodynamics assessment on target engagement of ZLC491 in the MDA-MB-231 xenograft model; (B) immunoblotting of CDK12, CDK13, and α-tubulin in tissue lysate of MDA-MB-231 xenografts model after ZLC491 treatment; (C) protein levels were quantified using ImageJ and normalized to corresponding α-tubulin, then plotted using GraphPad Prism 8.0; (D) immunohistochemistry (IHC) analysis on the tumors by H&E staining and TUNEL assays; (E) TUNEL histology scores were analyzed and plotted by GraphPad Prism 8.0; (F) body weight change during the treatment.
The pharmacodynamics experiments were performed under an approved animal protocol by the Institutional Animal Care & Use Committee of the University of Michigan. Six- to eight-week-old CB17SCID female (Charles River Laboratory) mice were in a regular SPF housing room prior to cell injection. […]

[2] = test system: B3GAT3; test: TMT-labeled quantitative proteomics in MDA-MB-231 cells; format: cell-based, Homo sapiens; details: 2 μM ZLC491 vs DMSO, 8 h
Description: (§1) Figure 5 ZLC491 degraded CDK12/13 with high selectivity. (A) Global proteomic analysis of ZLC491 in MDA-MB-231 cells after 8 h treatment of DMSO or 2 μM ZLC491; (B) mass-spec quantification of CDKs changes; (C) immunoblotting of target protein degradation in samples for proteomic analysis.
(§2) MDA-MB-231 cells were seeded at 8 × 10^5 cells in 6 cm dishes 24 h before treating with 2 μM ZLC491 or DMSO in quadruplicate or triplicate for 8 h. Cell lysates were prepared by washing cells twice with cold PBS and adding 180 μL lysis buffer (10 mM HEPES, pH 7.0, 1% (w/v) SDS, 2 mM MgCl·6H2O supplemented with 0.1% BeyoZonase (Beyotime)) per dish. Samples were quantified using a micro-BCA protein assay kit (Thermo Fisher Scientific) and 600 μg of each sample was processed and digested using the filter aided sample preparation (FASP) method followed by alkylation with iodoacetamide and digestion with trypsin. The samples were then desalted using Oasis HLB C18 SPE cartridge column (Waters, WAT094225). The peptides were lyophilized and reconstituted, then 25 μg peptides of each sample were labeled with TMT 11-plex Isobaric Label Reagent Set (Thermo Fisher Scientific) as the manufacturer’s instructions. After labeling, the peptides from the 11 samples were pooled together. The pooled TMT 11-plex sample was fractionated using high pH reverse-phase chromatography on an XBridge peptide BEH column (130 Å, 3.5 μm, 2.1 × 150 mm, Waters) on an Ultimate 3000 HPLC system (Thermo Scientific/Dionex). […]
(§3) The fractions were analyzed sequentially on an Orbitrap Fusion Lumos Mass Spectrometer (Thermo Scientific) coupled to a NanoLC-1200 UHPLC system (Thermo Scientific) with C18 capillary column. […] MS3 precursor were fragmented by HCD and analyzed with Orbitrap at NCE 65, AGC 1E5, resolution 60000.
(§4) The raw MS data files for all 11 fractions were searched against the Uniprot-Human-Canonical database by Proteome Discoverer 2.0 for protein identification and TMT reporter ion quantitation. […]

[3] = test system: NME2; test: as above; format: cell-based, Homo sapiens; details: 2 μM ZLC491 vs DMSO, 8 h
Description: as §1, §2, §3, §4

[4] = test system: ARG2; test: as above; format: cell-based, Homo sapiens; details: 2 μM ZLC491 vs DMSO, 8 h
Description: as §1, §2, §3, §4

Structure (SMILES): N#Cc1ccc(N[C@H]2CC[C@H](N(C(=O)NCc3ccccc3)c3ccc(N4CCN(C5CCN(c6cc7c(cc6F)C(=O)N(C6CCC(=O)NC6=O)C7=O)CC5)CC4)cc3)CC2)nc1 (some centres unmarked) [ZLC491, 3-Benzyl-1-((1r,4r)-4-((5-cyanopyridin-2-yl)amino)cyclohexyl)-1-(4-(4-(1-(2-(2,6-dioxopiperidin-3-yl)-6-fluoro-1,3-dioxoisoindolin-5-yl)piperidin-4-yl)piperazin-1-yl)phenyl)urea]
- body weight change during the treatment [1]: absence of body weight loss
- tolerability [1]: well tolerated
- FC_4-91 (B3GAT3) [2]: 1.982
- FC_4-91 (NME2) [3]: 1.1277
- FC_4-91 (ARG2) [4]: 1.14
